Here are results for eleven compounds from US9254331B2, “Sulforaphane stabilization” (AURIGA INTERNATIONAL, priority 2010, dated 2016).

The conditions of data set [1]: allyl isothiocyanate sample treated one hour in boiling water, cited from earlier work.
The conditions of data set [2]: mixture of isoamyl salicylate, capric/caprylic triglyceride and silicone derivative, 2% sulforaphane.
Data set [3] can be described thus: Stabilization of isothiocyanates with ascorbic acid upon storage. To be noted: similar study with sulforaphane. The text has this:
Further, it is also known how to stabilize allyl isothiocyanate with ascorbic acid.

Experiment in data set [4]: not given
This is another data set of the same source.

The conditions of data set [5]: NMR.
How the values of data set [6] were obtained:
The stability of sulforaphane was investigated in the following way: a 1% sulforaphane solution is prepared in different media to be tested. The preparation, maintained in a closed container is then thermostated at 25° C., 37° C. or 40° C. Kinetic tracking is carried out by assaying the residual sulforaphane.
The HPLC method used is the following:
Column: Discovery C18 (15 cm×4.8 mm×5 μm)
Mobile Phase: isocratic CH3CN/H2O (50/50)
Injection (10 μL) after dilution of the parent solution in the mobile phase in order to obtain a sulforaphane concentration of 1 mg/mL.
External standard: naphthalene.
1% of sulforaphane were placed per mL of solution containing diphospholipides such as for example Phosal®. The preparation, maintained in a closed container is then thermostated at 40° C. Kinetic tracking is carried out by assaying the residual sulforaphane:
1% m/m sulforaphane solutions were prepared in each anhydrous ester mentioned above. Kinetic tracking of the degradation was then carried out at 40° C. by using naphthalene as an external standard.
Kinetic tracking of the degradation was then carried out at 40° C. by using naphthalene, as an external standard.
The source holds these as a separate data set.

For data set [7] the following is noted: cited from earlier work.
For data set [8] the following is noted: after seven months, cited from earlier work.
Where [9] appears, read: closed flask, non-inertized, exposed to light.

Where only a bound is given, the exact number is not on record here.

In the case of `C=CCSC#N` [allyl thiocyanate], in data set [1], the “Concentration at pH 2.7” value is reported as 9.21 mg/g, the “Concentration at pH 7.0” value was 13.84 mg/g and the “Concentration at pH 9.0” value was 12.32 mg/g.

As to `C=CCSSSCC=C` [diallyl trisulfide], in data set [1], the “Concentration at pH 2.7” value is 10.31 mg/g, the “Concentration at pH 7.0” value was 13.63 mg/g and the “Concentration at pH 9.0” value was 14.11 mg/g.

`C=CCSSSSCC=C` [diallyl tetrasulfide]: in [1], the “Concentration at pH 2.7” value is “Traces”, the “Concentration at pH 7.0” value was “Traces” and the “Concentration at pH 9.0” value is recorded as “Traces”.

Take `C=CC1SC=CCS1` (centres unmarked) [2-vinyl-4-1,3-dithiin]: in data set [1], the “Concentration at pH 2.7” value is “Traces”, the “Concentration at pH 7.0” value is listed as “Traces” and the “Concentration at pH 9.0” value is “Traces”.

On to `C=CCSCC=C` [diallyl sulfide], for which, in data set [1], the “Concentration at pH 2.7” value is recorded as 13.09 mg/g, the “Concentration at pH 7.0” value is 22.16 mg/g and the “Concentration at pH 9.0” value is 26.40 mg/g.

As to `C[S+]([O-])CCCCN=C=S` (centres unmarked) [sulforaphane], in data set [2], the “penetration into the skin” value is on record as “good penetration into the skin”. The “stabilization of sulforaphane by ascorbic acid” value in [3] was “not able to stabilize”. In addition, the “solubility in argan oil” value (argan oil) is ~2%. Further, the “solubility in eglantine rose oil” value (eglantine rose oil) is listed as ~3.5%. For the same compound, the “solubility in anhydrous esters” value (ester 610, methyl salicylate, isoamyl salicylate (Example 1)) is on record as > 6 % (m/m). For the same compound, under “jojoba oil”, the “solubility in jojoba oil” value was “about 0.5 % (m/m)”. Also, the “solubilization in cosmetic formulation” value (mixture of isoamyl salicylate, capric/caprylic triglyceride and silicone derivative) is given as 2%. Besides, the “solubility in pure anhydrous esters” value (triethylpropane triostearate, coco caprylate-caprate (Example 4)) is > 6 % (m/m). The “product degraded into 3-butenylisothiocyanate on injection in gas chromatography” value in data set [4] (thermostated injector at 250° C.) worked out at 80%. Further, in [4] (without passing through the injector), the “degradation when injected directly onto the column” value is reported as “no degradation peak is observed”. In data set [5] (24 hour reflux), the “degradation on heating with reflux in chloroform” value is reported as “did not either show any degradation”. Besides, in data set [5] (setting [9]), the “stability in solution in DMSO” value is given as “stable for at least one week” and the “stability in solution in chloroform” value is on record as “stable for at least one week”. For the same compound, the “degradation in 2-octyl-dodecanol and dimethyl isosorbide” value in [6] (1% (m/m) in 2-octyl-dodecanol (Nerol 20) and dimethyl isosorbide) was “degraded over time”. Besides, the “degradation in vegetable oils” value in [6] (1% (m/m) in jojoba, argan and eglantine rose oils) was “too substantial to allow commercial use”. Besides, the “degradation in isostearate and coco caprylate-caprate” value in data set [6] (1% (m/m) in triethylpropane triostearate and coco caprylate-caprate CCC, 40° C.) is reported as “negligible”. Also, in data set [6] (1% in solution containing phospholipids (Phosal), 40° C., in less than 3 days), the “degradation in phospholipid medium” value is given as “more than 40%”. In addition, in [6] (1% m/m in ester 610, methyl salicylate, isoamyl salicylate, 40° C.), the “degradation in anhydrous esters” value is on record as “negligible”. For the same compound, the loss of sulforaphane in data set [6] (1% solution in water, 40° C., after 2 days) came to 10%. Further, the “remaining fraction of initial content” value in data set [6] (1% solution in water, 40° C., after 10 days) came to 50%. Moreover, the “degradation in cosmetic formulation” value in data set [6] (2% (m/m) in isoamyl salicylate, capric/caprylic triglyceride and silicone derivative, 6 months at 40° C.) is reported as 3-5%. Besides, the “degradation in galenic formulation” value in [6] (2% sulforaphane, 2 anhydrous esters and methylpolysiloxane A or B) is recorded as “no degradation is observed”. Further, the “time after which residual sulforaphane begins to fall” value in [6] (antioxidant hydro-alcoholic medium, 25° C.) stood at 1 days. Besides, in data set [6] (antioxidant hydro-alcoholic medium, 37° C., in less than 7 days), the “remaining fraction of initial amount” value is on record as “no more than 50%”. In [6] (ethanol, 40° C., early days, coupling compound with ethanol formed), the “degradation trend in ethanol” value is on record as “very dearly marked”. Besides, the “degradation in tocopheryl acetate” value in [6] (tocopheryl acetate) is “no significant degradation”. In addition, in [7] (50% of acacia gum, 40° C./75% humidity versus 25° C./60% humidity), the “degradation under accelerated versus normal ageing conditions” value is on record as “twice more significant”. The “degradation with 70% gum arabic at 25° C.” value in data set [7] (70% gum arabic, 25° C., first week, then relatively stable) was “slight degradation”. The “degradation with 70% gum arabic” value in data set [7] (70% gum arabic, after one month, 40° C.) is listed as ≤ 30%. For the same compound, the “stabilization with 50% of acacia gum” value in data set [7] (sample having 50% of acacia gum) is “does not exhibit any particular stabilization”. In data set [8] (less suitable, not very stabilizing cyclodextrins), the “degradation with less suitable cyclodextrins” value was “up to 50%”. In data set [8] (α-cyclodextrins), the “degradation with α-cyclodextrins” value is given as “less than 10%”.

Take `C1=CSSSC1` [4H-1,2,3-trithiin]: in data set [1], the “Concentration at pH 2.7” value is “Traces”, the “Concentration at pH 7.0” value is listed as “Traces” and the “Concentration at pH 9.0” value is given as “Traces”.

With `C=CCN=C=S` [allyl isothiocyanate, reference compound], in data set [1], the “Concentration at pH 2.7” value is recorded as 379.06 mg/g, the “Concentration at pH 7.0” value was 290.27 mg/g and the “Concentration at pH 9.0” value is 270.46 mg/g.

Take `C=CCSSCC=C` [diallyl disulfide]: in data set [1], the “Concentration at pH 2.7” value is 8.09 mg/g, the “Concentration at pH 7.0” value is 11.47 mg/g and the “Concentration at pH 9.0” value is given as 12.71 mg/g.

Regarding `CC1CSSSS1` (centres unmarked) [5-methyl-1,2,3,4-tetrathiane], in [1], the “Concentration at pH 2.7” value was 0.01 mg/g, the “Concentration at pH 7.0” value is listed as 0.02 mg/g and the “Concentration at pH 9.0” value is 0.03 mg/g.

Consider `C1=CSSC1` [3H-1,2-dithiolene], for which, in data set [1], the “Concentration at pH 2.7” value is reported as 0.13 mg/g, the “Concentration at pH 7.0” value is recorded as 0.17 mg/g and the “Concentration at pH 9.0” value is reported as 0.19 mg/g.
